Laboratory results from patent US20220218833A1, “PLATELET-FACILITATED DELIVERY OF THERAPEUTIC COMPOUNDS” (CSTS Health Care Inc., priority 2019, published 2022).
“Also recorded” adds a separate entry of the source. Where no end group is shown, it is not given here.

Columns and labels:
platelets = experiment: Cargo loading into platelets contacted with a non-specific GAG inhibitor; format: cell-based; conditions: platelets contacted with the inhibitor
Description: The present invention is based, in part, on the discovery that cargo can be loaded in alpha granules and that this loading is not receptor-mediated. Instead, cargo loading into platelets, and specifically into their alpha granules, relies on the binding to glycosaminoglycans (GAG) in the alpha granules of the platelets.

[1] = Affinity chromatography of peptides; format: binding; conditions: FIG. 4
Description: Additionally, the binding affinities for the two illustrative GAG-binding peptides and the CFL to heparan sulfate (HS) was determined using affinity chromatography.

[2] = tested on: alpha granules of platelets; experiment: Confocal microscopy of Alexa647-labeled peptides with PF4 alpha granule marker; format: cell-based; conditions: for loading of attached cargo into alpha granules of platelets (Alexa647 intensities for each ROI): ROIs selected on PF4 intensity, FIG. 2B
Description: To confirm that the Alexa647-labeled GAG-binding peptides were loaded into alpha granules of platelets, confocal microscopy was used. The platelets that were centrifuged in the experiments of FIG. 1A and FIG. 1B, were fixed in 2% paraformaldehyde and settled onto glass coverslips. After permeabilization, immunofluorescence staining was performed against PF4, which is a marker for alpha granules of platelets. Platelets were stained with Alexa568-secondary antibody. Images were collected through a Nikon-A1 laser-scanning microscope equipped with a 60× oil objective lens.
FIG. 2A are representative images with PF4 staining shown in red (left column) and the Alexa647 signal (from the free Alexa647, Alexa647-labeled GAG-binding peptide, or Alexa647-labeled CFL; middle column) shown in purple. Images were only adjusted for brightness and contrast for display. n>5 images were acquired for each experiment and regions of interest (ROIs) were selected based on PF4 intensity.
The Alexa647 intensities for each ROI were measured using ImageJ and plotted in box and whisker graph using Prism 8.

isolated platelets = experiment: Platelet loading of Alexa647-labeled peptides, decrease in supernatant fluorescence; format: cell-based; conditions: for absorbance of supernatant, complete versus loaded measurements (loading into platelets): Alexa647-labeled peptides co-incubated with isolated platelets at 37° C. for one hour, FIG. 1A; for loading of attached cargo into platelets, loaded condition normalized to complete condition: Alexa647 as cargo, FIG. 1B
Description: Alexa647-labeled GAG-binding peptides, identified in FIG. 1A and FIG. 1B as PAL1 and PAL2 and an Alexa647-labeled control peptide (a charge-free ligand (CFL) which served as a negative control), were tested for their binding affinity for glycosaminoglycans, such as chondroitin sulfate, and their abilities to enter platelets.
Alexa647-labeled peptides or Alexa647 alone were co-incubated with isolated platelets at 37° C. for one hour to allow for platelet loading. The respective platelet-loading ability was indicated by a decrease in fluorescence in supernatant following the incubation. For controls, identical experiments were performed without the incubation period (noted as “complete” in the figure). Platelets following co-incubation were then centrifuged at 800 g for 10-minutes to separate platelets from supernatant (noted as “loaded” in the figure).
FIG. 1B represents the data in FIG. 1A normalized for each peptide experiment, i.e., normalization of a loaded condition to its complete condition.

Row | Compound | amount of cargos loaded into platelets (platelets) | binding to heparan sulfate (HS) [1] | loading of attached cargo into alpha granules of platelets (Alexa647 intensities for each ROI) [2] | colocalization of alpha granule marker PF4 and Alexa647 signal ([2]; merged confocal images, FIG. 2A) | absorbance of supernatant, complete versus loaded measurements (loading into platelets) (isolated platelets) | loading of attached cargo into platelets, loaded condition normalized to complete condition (isolated platelets) | relative affinity for HS, PAL2 versus PAL1 [1]
1 | Cc1cc(N)c2cc(NC(=O)Nc3ccc4nc(C)cc(N)c4c3)ccc2n1 [Surfen] | reduced amounts of cargos are loaded into platelets | – | – | – | – | – | –
2 | CFL: control peptide, a charge-free ligand, SEQ ID NO: 14, negative control (EGGIWFPYGGF) [reference compound] | – | did not bind to HS | do not load into platelets | Co-localization was not observed | did not change | unable to direct loading of the cargo into platelets | –
3 | ERRIWFPYRRF (SEQ ID NO: 1) (also: Alexa647 label) [PAL1] | – | – | facilitates loading of an attached cargo into alpha granules of platelets | – | decrease in absorbance | facilitates loading of an attached cargo into platelets | –
4 | RFRWPYRIREF (SEQ ID NO: 2) (also: Alexa647 label) [PAL2] | – | – | facilitates loading of an attached cargo into alpha granules of platelets | – | decrease in absorbance | facilitates loading of an attached cargo into platelets | greater affinity for HS than PAL′; also recorded: binds HS tighter than PALL
